Laboratory results from ChEMBL document CHEMBL3885861, “Open TG-GATES”.

Species on record: Rattus norvegicus
Test: Open TG-GATES - Regimen: Single
Format: toxicity, organism-based, Sprague-Dawley
Set-up: regimen Single, gender Male, age 6 weeks
Conditions: in vivo, po, 0 mg/kg, route gavage, dose level Control; for APTT / Bas / Eos / Fbg / Hb / Ht / Lym / MCH / MCHC / MCV / Mono / Neu / PT / Plat / RBC / Ret: tissue Blood; for KIDNEY_L / KIDNEY_R / KIDNEY_TOTAL: tissue Kidney; for LIVER: tissue Liver; for ALP / ALT / AST / BUN / CRE / Ca / Cl / DBIL / GLC / IP / K / LDH / Na / PL / RALB / TBIL / TC / TG / TP / gamma-GTP: tissue Plasma

## COc1ccc2[nH]c([S+]([O-])Cc3ncc(C)c(OC)c3C)nc2c1 (stereo not drawn) [OMEPRAZOLE]
3 h
  TERMINAL_BW: 218.5 g
  APTT: 20.5 s
  Bas: 0%
  Eos: 1%
  Fbg: 206.4 mg/dL
  Hb: 13 g/dL
  Ht: 38.5%
  Lym: 77.8%
  MCH: 21.4 pg
  MCHC: 33.9%
  MCV: 63.1 fL
  Mono: 2.4%
  Neu: 18.6%
  PT: 12.5 s
  Plat: 122.7 x10_4/uL
  RBC: 610.2 x10_4/ul
  Ret: 7.2%
  KIDNEY_L: 0.9 g
  KIDNEY_R: 0.9 g
  KIDNEY_TOTAL: 1.9 g
  LIVER: 9.9 g
  ALP: 855.8 IU/L
  ALT: 33.2 IU/L
  AST: 68.4 IU/L
  BUN: 12.6 mg/dL
  CRE: 0.4 mg/dL
  Ca: 10.8 mg/dL
  Cl: 100.6 meq/L
  DBIL: 0.064 mg/dL
  GLC: 191.8 mg/dL
  IP: 8.3 mg/dL
  K: 3.8 meq/L
  LDH: 171.2 IU/L
  Na: 140.4 meq/L
  PL: 130.8 mg/dL
  RALB: 3.1 g/dL
  TBIL: 0.1 mg/dL
  TC: 69.4 mg/dL
  TG: 59.4 mg/dL
  TP: 5.3 g/dL
  gamma-GTP: 1 IU/L
6 h
  TERMINAL_BW: 218.1 g
  APTT: 19.3 s
  Bas: 0%
  Eos: 0.8%
  Fbg: 220.4 mg/dL
  Hb: 13.6 g/dL
  Ht: 39.7%
  Lym: 72.4%
  MCH: 21.4 pg
  MCHC: 34.1%
  MCV: 62.7 fL
  Mono: 3.8%
  Neu: 22.2%
  PT: 12.6 s
  Plat: 123.4 x10_4/uL
  RBC: 634.2 x10_4/ul
  Ret: 7.1%
  KIDNEY_L: 1 g
  KIDNEY_R: 1 g
  KIDNEY_TOTAL: 1.9 g
  LIVER: 9.9 g
  ALP: 923.8 IU/L
  ALT: 32.6 IU/L
  AST: 66 IU/L
  BUN: 11 mg/dL
  CRE: 0.3 mg/dL
  Ca: 10.7 mg/dL
  Cl: 100.8 meq/L
  DBIL: 0.07 mg/dL
  GLC: 201 mg/dL
  IP: 8.8 mg/dL
  K: 3.8 meq/L
  LDH: 181.6 IU/L
  Na: 140 meq/L
  PL: 141.4 mg/dL
  RALB: 3.3 g/dL
  TBIL: 0.1 mg/dL
  TC: 73.4 mg/dL
  TG: 81.2 mg/dL
  TP: 5.4 g/dL
  gamma-GTP: 1.8 IU/L
9 h
  TERMINAL_BW: 218.2 g
  APTT: 20.9 s
  Bas: 0%
  Eos: 1%
  Fbg: 212.8 mg/dL
  Hb: 13.3 g/dL
  Ht: 38.6%
  Lym: 78%
  MCH: 21.5 pg
  MCHC: 34.3%
  MCV: 62.6 fL
  Mono: 3%
  Neu: 17.4%
  PT: 13.1 s
  Plat: 119.3 x10_4/uL
  RBC: 615.6 x10_4/ul
  Ret: 7.4%
  KIDNEY_L: 0.9 g
  KIDNEY_R: 1 g
  KIDNEY_TOTAL: 1.9 g
  LIVER: 9.1 g
  ALP: 764.2 IU/L
  ALT: 28 IU/L
  AST: 59.2 IU/L
  BUN: 11.4 mg/dL
  CRE: 0.3 mg/dL
  Ca: 10.7 mg/dL
  Cl: 101 meq/L
  DBIL: 0.06 mg/dL
  GLC: 188.4 mg/dL
  IP: 9.4 mg/dL
  K: 3.9 meq/L
  LDH: 175.4 IU/L
  Na: 140.4 meq/L
  PL: 122.2 mg/dL
  RALB: 3.3 g/dL
  TBIL: 0.1 mg/dL
  TC: 66.4 mg/dL
  TG: 54.6 mg/dL
  TP: 5.5 g/dL
  gamma-GTP: 1.4 IU/L
24 h
  TERMINAL_BW: 234.9 g
  APTT: 20.7 s
  Bas: 0%
  Eos: 1%
  Fbg: 229.6 mg/dL
  Hb: 13.2 g/dL
  Ht: 38.7%
  Lym: 78.6%
  MCH: 21.7 pg
  MCHC: 34.1%
  MCV: 63.6 fL
  Mono: 2.6%
  Neu: 17.2%
  PT: 12.1 s
  Plat: 118.9 x10_4/uL
  RBC: 608 x10_4/ul
  Ret: 6.6%
  KIDNEY_L: 1 g
  KIDNEY_R: 1 g
  KIDNEY_TOTAL: 2 g
  LIVER: 11.8 g
  ALP: 979.4 IU/L
  ALT: 35.4 IU/L
  AST: 62.2 IU/L
  BUN: 17.4 mg/dL
  CRE: 0.4 mg/dL
  Ca: 11.1 mg/dL
  Cl: 101.2 meq/L
  DBIL: 0.094 mg/dL
  GLC: 216 mg/dL
  IP: 7.7 mg/dL
  K: 4.2 meq/L
  LDH: 192 IU/L
  Na: 140.6 meq/L
  PL: 151.6 mg/dL
  RALB: 3.4 g/dL
  TBIL: 0.1 mg/dL
  TC: 79.6 mg/dL
  TG: 109 mg/dL
  TP: 5.5 g/dL
